Patent US10899772B2, “IRAK4 modulators” (priority 2017, dated 2021)
pKi: −log10 of the molar value.

Each compound was assayed against human IRAK4 (Homo sapiens (Human), UniProt Q9NWZ3) (assay: IRAK4 kinase inhibition, Transcreener fluorescence polarization (ADP detection)). Details: recombinant full-length His6-IRAK4 1.25 nM; 125 μM ATP; 125 μM peptide; 90 min; Ki computed using ATP Km 642 μM.
Type: biochemical
Description: Compounds were assayed for inhibition of human IRAK4 and IRAK1 catalytic activity using recombinant enzyme produced from insect cells. Full-length IRAK4 protein, carrying an N-terminal His6-Tag, was obtained from Life Technologies (Carlsbad, Calif., USA). The IRAK1 construct was produced internally and was comprised of IRAK1 residues Arg194 to Ser712, preceded by an NH2-terminal His6 tag and the coding sequence for glutathione-S-transferase.
Kinase activities were assayed using the Transcreener-Fluorecescence polarization platform (BelBrook Labs, Madison, Wis., USA) that measures amounts of the reaction product, ADP.
384 well assay plates spotted with compound received 4 μl of a 2× substrate (ATP+peptide) mix in reaction buffer, followed by 4 μl of 2× enzyme diluted in reaction buffer.

Sequence of human IRAK4 (Q9NWZ3 whole entry): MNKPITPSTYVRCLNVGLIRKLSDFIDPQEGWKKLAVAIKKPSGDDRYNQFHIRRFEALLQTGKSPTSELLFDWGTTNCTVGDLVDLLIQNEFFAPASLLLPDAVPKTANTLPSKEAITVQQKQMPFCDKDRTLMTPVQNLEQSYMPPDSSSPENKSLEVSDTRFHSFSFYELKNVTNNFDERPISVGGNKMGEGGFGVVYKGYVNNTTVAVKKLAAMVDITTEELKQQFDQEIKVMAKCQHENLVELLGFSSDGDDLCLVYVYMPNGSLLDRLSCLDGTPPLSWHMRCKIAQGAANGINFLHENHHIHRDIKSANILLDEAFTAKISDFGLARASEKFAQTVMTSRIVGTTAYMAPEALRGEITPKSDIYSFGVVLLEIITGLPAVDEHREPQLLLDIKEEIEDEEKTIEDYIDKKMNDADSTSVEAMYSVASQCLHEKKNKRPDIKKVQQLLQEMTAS

Going from `CO[C@H](C)c1cccc(C(=O)Nc2cc3c(cc2N2CCOCC2)C(=O)N(C[C@@H](F)C(C)(C)O)C3)n1` (racemic) [Example 23, N-[6-morpholino-1-oxo-2-[rac-(2R)-2-fluoro-3-hydroxy-3-methyl-butyl]isoindolin-5-yl]-6-[rac-(1R)-1-methoxyethyl] pyridine-2-carboxamide] to `CO[C@@H](C)c1cccc(C(=O)Nc2cc3c(cc2N2CCOCC2)C(=O)N(C[C@@H](F)C(C)(C)O)C3)n1` (racemic) [Example 24, N-[6-morpholino-1-oxo-2-[rac-(2R)-2-fluoro-3-hydroxy-3-methyl-butyl]isoindolin-5-yl]-6-[rac-(1S)-1-methoxyethyl] pyridine-2-carboxamide], the pKi falls from 7.92 to 7.48 (0.44 log units).

Going from `Cc1ccc(-c2cc3c(cc2NC(=O)c2cnc(C)o2)CN(C[C@@H](F)C(C)(C)O)C3=O)nc1` [Example 14, (R)-N-(2-(2-Fluoro-3-hydroxy-3-methylbutyl)-6-(5-methyl-pyridin-2-yl)-1-oxoisoindolin-5-yl)-2-methyloxazole-5-carboxamide] to `COc1cccc(C(=O)Nc2cc3c(cc2N(C)C)C(=O)N(C[C@@H](F)C(C)(C)O)C3)n1` [Example 19, N-[6-(Dimethyl-amino)-2-[(2R)-2-fluoro-3-hydroxy-3-methyl-butyl]-1-oxo-isoindolin-5-yl]-6-methoxy-pyridine-2-carboxamide], the pKi rises from 8.38 to 8.82 (0.44 log units).

`Cn1ncc(C(=O)Nc2cc3c(cc2N2CCOCC2)C(=O)N(C[C@@H](F)C(C)(C)O)C3)c1Cl` [Example 33, 5-Chloro-N-[2-[(2R)-2-fluoro-3-hydroxy-3-methyl-butyl]-6-morpholino-1-oxo-isoindolin-5-yl]-1-methyl-pyrazole-4-carboxamide] and `Cn1ccn2ncc(C(=O)Nc3cc4c(cc3N3CCOCC3)C(=O)N(C[C@@H](F)C(C)(C)O)C4)c2c1=O` [Example 26, N-[2-[(2R)-2-Fluoro-3-hydroxy-3-methyl-butyl]-6-morpholino-1-oxo-isoindolin-5-yl]-5-methyl-4-oxo-pyrazolo [1,5-a] pyrazine-3-carboxamide] are within 0.2 log units of each other in pKi: 7.29 for the first, 7.33 for the second.

First: CC(C)(O)[C@H](F)CN1Cc2cc(NC(=O)c3cccc4[nH]cnc34)c(N3CCOCC3)cc2C1=O [Example 32, N-[2-[(2R)-2-Fluoro-3-hydroxy-3-methyl-butyl]-6-morpholino-1-oxo-isoindolin-5-yl]-1H-benz-imidazole-4-carboxamide]
Second: CC(C)(O)[C@H](F)CN1Cc2cc(NC(=O)c3ccc[nH]c3=O)c(N3CCOCC3)cc2C1=O [Example 3, (R)-N-(2-(2-Fluoro-3-hydroxy-3-methylbutyl)-6-morpholino-1-oxoisoindolin-5-yl)-2-oxo-1,2-dihydropyridine-3-carboxamide]
The pKi of the first is 0.87 log units higher: 8.96 for the first, 8.09 for the second. The first binds more tightly here.

Compared with `CC(C)Oc1cccc(C(=O)Nc2cc3c(cc2N(C)C)C(=O)N(C[C@@H](F)C(C)(C)O)C3)n1` [Example 11, N-[6-(Dimethylamino)-2-[(2R)-2-fluoro-3-hydroxy-3-methyl-butyl]-1-oxo-isoindolin-5-yl]-6-isopropoxy-pyridine-2-carboxamide], `CN(C)c1cc2c(cc1NC(=O)c1cccc(OC3CCNC3)n1)CN(C[C@@H](F)C(C)(C)O)C2=O` (stereo partly drawn) [Example 13, N-[6-(Dimethylamino)-2-[(2R)-2-fluoro-3-hydroxy-3-methyl-butyl]-1-oxo-isoindolin-5-yl]-6-pyrrolidin-3-yloxy-pyridine-2-carboxamide] is 0.56 log units higher in pKi: 7.68 for the first, 8.24 for the second.

First: C[C@@H](O)c1cccc(C(=O)Nc2cc3c(cc2N2CCOCC2)C(=O)N(C[C@@H](F)C(C)(C)O)C3)n1 (racemic) [Example 21, N-[6-morpholino-1-oxo-2-[rac-(2R)-2-fluoro-3-hydroxy-3-methyl-butyl]isoindolin-5-yl]-6-[rac-(1R)-1-hydroxyethyl] pyridine-2-carboxamide]
Second: C[C@H](O)c1cccc(C(=O)Nc2cc3c(cc2N2CCOCC2)C(=O)N(C[C@@H](F)C(C)(C)O)C3)n1 (racemic) [Example 22, N-[6-morpholino-1-oxo-2-[rac-(2R)-2-fluoro-3-hydroxy-3-methyl-butyl]isoindolin-5-yl]-6-[rac-(1S)-1-hydroxyethyl] pyridine-2-carboxamide]
The pKi of the first is 0.73 log units higher: 8.77 for the first, 8.04 for the second. The first binds more tightly here.

Compared with `CC(C)(O)[C@H](F)CN1Cc2cc(NC(=O)c3cccc(CC(F)(F)F)n3)c(N3CCOCC3)cc2C1=O` (racemic) [Example 25, N-[6-morpholino-1-oxo-2-[rac-(2R)-2-fluoro-3-hydroxy-3-methyl-butyl]isoindolin-5-yl]-6-(2,2,2-trifluoroethyl)pyridine-2-carboxamide], `CC(C)(O)[C@H](F)CN1Cc2cc(NC(=O)c3cccc(C(F)(F)F)n3)c(N3CCOCC3)cc2C1=O` [Example 17, (R)—N-(2-(2-Fluoro-3-hydroxy-3-methylbutyl)-6-morpholino-1-oxoisoindolin-5-yl)-6-(trifluoromethyl)picolinamide] is 0.41 log units higher in pKi: 8.19 for the first, 8.60 for the second. The second binds more tightly here.

`Cn1cccc(C(=O)Nc2cc3c(cc2N2CCOCC2)C(=O)N(C[C@@H](F)C(C)(C)O)C3)c1=O` [Example 4, (R)-N-(2-(2-Fluoro-3-hydroxy-3-methylbutyl)-6-morpholino-1-oxoisoindolin-5-yl)-1-methyl-2-oxo-1,2-dihydropyridine-3-carboxamide] and `CCn1cccc(C(=O)Nc2cc3c(cc2N2CCOCC2)C(=O)N(C[C@@H](F)C(C)(C)O)C3)c1=O` [Example 5, (R)-1-Ethyl-N-(2-(2-fluoro-3-hydroxy-3-methylbutyl)-6-morpholino-1-oxoisoindolin-5-yl)-2-oxo-1,2-dihydropyridine-3-carboxamide] are within 0.2 log units of each other in pKi: 8.10 for the first, 8.25 for the second.

`C[C@H]1COCCN1c1nc(C(=O)Nc2cc3c(cc2N2CCOCC2)C(=O)N(C[C@@H](F)C(C)(C)O)C3)co1` [Example 10, N-[2-[(2R)-2-Fluoro-3-hydroxy-3-methyl-butyl]-6-morpholino-1-oxo-isoindolin-5-yl]-2-[(3S)-3-methylmorpholin-4-yl]oxazole-4-carboxamide] and `C[C@@H]1COCCN1c1nc(C(=O)Nc2cc3c(cc2N2CCOCC2)C(=O)N(C[C@@H](F)C(C)(C)O)C3)co1` (racemic) [Example 16, N-(2-((R)-2-fluoro-3-hydroxy-3-methylbutyl)-6-morpholino-1-oxoisoindolin-5-yl)-2-((R)-20-methyl-morpholino) oxazole-4-carboxamide] are within 0.2 log units of each other in pKi: 8.12 for the first, 8.15 for the second.

`CC(C)(O)[C@H](F)CN1Cc2cc(NC(=O)c3cnc4cccnn34)c(N3CCOCC3)cc2C1=O` [Example 1, (R)—N-(2-(2-Fluoro-3-hydroxy-3-methylbutyl)-6-morpholino-1-oxoisoindolin-5-yl)imidazo[1,2-b]pyridazine-3-carboxamide] and `CC(C)(O)[C@H](F)CN1Cc2cc(NC(=O)c3coc(N4CCOCC4)n3)c(N3CCOCC3)cc2C1=O` [Example 15, (R)-N-(2-(2-Fluoro-3-hydroxy-3-methylbutyl)-6-morpholino-1-oxoisoindolin-5-yl)-2-morpholino-oxazole-4-carboxamide] are within 0.2 log units of each other in pKi: 8.29 for the first, 8.34 for the second.
